Laboratory results published in US8507508B2, “Solid forms of pemetrexed” (Dr. Reddy's Laboratories Limited, priority 2007, dated 2013).
One block for each molecule: values may come before it.

Assay: Physical stability on storage, checked by retention of the original XRPD pattern
Assay type: physicochemical
Excerpt: All XRPD data reported herein were obtained using a Bruker or PANalytical AXS D8 Advance Powder X-ray Diffractometer at Cu Kα radiation, having the wavelength 1.5418 Å. Since some margin of error is possible in the assignment of 2 theta angles and d-spacings, the preferred method of comparing X-ray powder diffraction patterns in order to identify a particular crystalline form is to overlay the X-ray powder diffraction pattern of the unknown form over the X-ray powder diffraction pattern of a known form. For all analytical data discussed in this application, it should be kept in mind that specific values depend on many factors, e.g., specific instrument, sample preparation and individual operator.
The obtained sample kept in a sealed polythene bag at a temperature of 20° C. to 25° C. for a period of 58 days to check the physical stability.
The obtained sample kept in a sealed polythene bag at a temperature of 20 to 25° C. for a period of 7 days to check the physical stability.
The obtained sample kept in a sealed polythene bag at a temperature of 20 to 25° C. for a period of 3 days to check the physical stability.
The sample was kept in a petri dish and stored at room temperature for a period of 24 hours to check the physical stability.

physical stability (XRPD and physical observation) (sealed polythene bag, 20° C. to 25° C., 58 days): retain its amorphous nature
SMILES: Nc1nc2[nH]cc(CCc3ccc(C(=O)N[C@@H](CCC(=O)[O-])C(=O)[O-])cc3)c2c(=O)[nH]1.[Na+].[Na+] [Example 1, Amorphous Pemetrexed Disodium]

physical stability (XRPD) (petri dish, room temperature, 24 hours): retain its polymorphic form | physical stability (XRPD) (sealed polythene bag, 20 to 25° C., 3 days): retain its polymorphic form
SMILES: Nc1nc2[nH]cc(CCc3ccc(C(=O)N[C@@H](CCC(=O)[O-])C(=O)[O-])cc3)c2c(=O)[nH]1.[Na+].[Na+] [Example 4, Amorphous Pemetrexed Disodium]

physical stability (XRPD) (sealed polythene bag, 20 to 25° C., 7 days): retain its amorphous form
SMILES: Nc1nc2[nH]cc(CCc3ccc(C(=O)N[C@@H](CCC(=O)[O-])C(=O)[O-])cc3)c2c(=O)[nH]1.[Na+].[Na+] [Example 3, Amorphous Pemetrexed Disodium]
